{
  "source": "patent US20230129258A1",
  "about": "“HETEROTANDEM BICYCLIC PEPTIDE COMPLEXES” (BicycleTx Limited, priority 2019, published 2023)",
  "key": {"[1]": {"target": "T1, OX40 (Homo sapiens, UniProt P43489)", "T1 construct": "host or cells: OX40 Jurkat cells", "T1 sequence (P43489 29-277)": "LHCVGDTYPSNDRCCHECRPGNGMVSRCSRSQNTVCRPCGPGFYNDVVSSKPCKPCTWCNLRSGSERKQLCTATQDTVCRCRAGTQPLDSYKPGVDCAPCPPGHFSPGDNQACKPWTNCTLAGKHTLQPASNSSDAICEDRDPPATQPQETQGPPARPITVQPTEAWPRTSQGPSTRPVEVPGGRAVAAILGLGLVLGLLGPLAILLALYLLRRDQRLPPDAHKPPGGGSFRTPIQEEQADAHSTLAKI", "experiment": "Promega OX40 cell-activity assay (NF-kB luciferase, Jurkat) in co-culture with 4T1-D02 tumor cells", "assay_type": "cell-based", "settings": "co-culture with Nectin-4 positive 4T1-D02 cells", "method": "Promega have developed an OX40 cell-activity assay that uses NF-κB luciferase luminescence as a read-out of OX40 activation in Jurkat cells (Promega CS197704). On the day of the experiment, prepare medium by thawing FBS and adding 5% FBS to RPMI-1640. Thaw OX40 Jurkat cells in the water-bath and then add 500 μl cells to 11.5 ml pre-warmed 5% FBS RPMI-1640 medium. Add 55 μl cells/well to white cell culture plates. Harvest tumor cells from culture. 4T1 is a Nectin-4 negative murine mammary gland epithelial cancer cell and it was genetically modified to express murine Nectin-4 on the cell surface (4T1 Nectin-4 positive; clone 411-D02). Tumor cells were cultured to 80% confluency in vitro in RPM11640 medium supplemented with 10% heat-inactivated FBS, 1× Penicillin/Streptomycin, 1× L-Glutamine, 20 mM HEPES and 1×NEAA (RPMI working medium). Tumor cells were trypsinized and washed two times at 1500 rpm for 5 minutes in RPM11640 working medium prewarmed to 37° C. Count cells and resuspend at 2,000,000 cells/mL in R5 media (for 10,000 cells/well). Add 5 μL of tumor cells per well. […]\nCo-incubate cells together with agonists for 6 hours at 37° C., 5% CO2. […] Read luciferase signal on CLAIROStar plate-reader using the MARS program and normalize the fold induction relative to background (medium alone). […]"}, "[2]": {"target": "T2, CD137 (Homo sapiens, UniProt Q07011)", "T2 sequence (Q07011 24-255)": "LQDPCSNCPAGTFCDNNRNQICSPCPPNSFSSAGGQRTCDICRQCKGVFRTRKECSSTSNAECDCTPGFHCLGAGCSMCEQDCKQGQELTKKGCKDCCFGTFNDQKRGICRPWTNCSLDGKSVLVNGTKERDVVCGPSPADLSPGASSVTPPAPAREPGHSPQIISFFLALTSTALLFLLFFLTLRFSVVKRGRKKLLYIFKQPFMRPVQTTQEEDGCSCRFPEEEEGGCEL", "experiment": "CD137 reporter assay (Promega, Jurkat cells) in co-culture with PD-L1-expressing RKO cells", "assay_type": "cell-based", "design": "host or cells: Jurkat reporter cells", "settings": "read-out: Fold Induction over background", "method": "Culture medium, referred to as R1 media, is prepared by adding 1% FBS to RPMI-1640 (component of Promega kit CS196005). Serial dilutions of test articles in R1 are prepared in a sterile 96 well-plate. Add 25 μL per well of test articles or R1 (as a background control) to designated wells in a white cell culture plate. Tumor cells* are harvested and resuspended at a concentration of 400,000 cells/mL in R1 media. Twenty five (25) μL/well of tumor cells are added to the white cell culture plate. Jurkat cells (Promega kit CS196005, 0.5 mL) are thawed in the water bath and then added to 5 ml pre-warmed R1 media. Twenty five (25) μL/well of Jurkat cells are then added to the white cell culture plate. Incubate the cells and test articles for 6 h at 37° C., 5% CO2. At the end of 6 h, add 75 μL/well Bio-Glo™ reagent (Promega) and incubate for 10 min before reading luminescence in a plate reader (Clariostar, BMG). The fold change relative to cells alone (Jurkat cells+Cell line used in co-culture) is calculated and plotted in GraphPad Prism as log(agonist) vs response to determine EC50 (nM) and Fold Induction over background (Max).\nThe tumor cell types used in co-culture for EphA2 are A549, PC3 and HT29. The tumor cell type used in co-culture for PD-L1 is RKO."}, "[3]": {"system": "5484 full-length human plasma membrane proteins and secreted proteins expressed in HEK293 cells", "experiment": "Retrogenix cell microarray off-target screening", "assay_type": "binding", "settings": "1 μM test peptide", "method": "Retrogenix microarray screening: Retrogenix's cell microarray technology was used to screen for specific off-target binding interactions of a biotinylated BCY11863 known as BCY13582.\nUnder these conditions, the test peptide was screened for binding against human HEK293 cells, individually expressing 5484 full-length human plasma membrane proteins and secreted proteins.\nEach primary hit was re-expressed, along with two control receptors (TGFBR2 and EGFR), and re-tested with 1 μM BCY13582 test peptide, 1 μM BCY13582 test peptide in the presence of 100 μM BCY11863, and other positive and negative control treatments (FIG. 4). […] These were untethered and tethered forms of Nectin-4, and CD137—the primary targets."}, "[4]": {"system": "TNF family receptors OX40 and CD40", "experiment": "CD137 paralogue screening by SPR", "assay_type": "binding", "settings": "streptavidin captured peptide, soluble receptors", "method": "CD137 Paralogue screening: Binding of streptavidin captured BCY13582 (biotinylated-BCY11863) was assessed using SPR against soluble TNF family receptors OX40 and CD40."}, "[5]": {"target": "T2, CD137", "experiment": "CD137 reporter assay (Promega CD137 luciferase reporter, Jurkat cells) in co-culture with Nectin-4-expressing tumor cells", "assay_type": "cell-based", "design": "host or cells: Jurkat reporter cells", "settings": "for EC50: Arithmetic mean EC50 (nM)"}},
  "data": [
    {"smiles": "CSCC[C@@H]1NC(=O)[C@@H]2CSCCC(=O)N3CN(CN(C3)C(=O)CCSC[C@H](NC(=O)CCOCCOCCOCCN(CCOCCOCCOCCn3cc(CCC(=O)NCCCC[C@H](NC(=O)[C@H](C)NC(=O)[C@@H]4CSCCC(=O)N5CN6CN(C5)C(=O)CCSC[C@H](NC(=O)[C@@H]5CCCN5C(=O)[C@H](CO)NC(=O)[C@H](Cc5ccc(O)cc5)NC(=O)[C@H](CC(C)C)NC(=O)[C@@H](NC(=O)[C@H](C)N)CSCCC6=O)C(=O)N[C@@H](Cc5c[nH]c6ccccc56)C(=O)N[C@@H](Cc5c[nH]cn5)C(=O)N5CCC[C@H]5C(=O)N[C@@H](CC(C)C)C(=O)N[C@@H](CC(N)=O)C(=O)N[C@@H](CC(=O)O)C(=O)N4)C(N)=O)nn3)CCOCCOCCOCCn3cc(CCC(=O)NCCCC[C@H](NC(=O)[C@H](C)NC(=O)[C@@H]4CSCCC(=O)N5CN6CN(C5)C(=O)CCSC[C@H](NC(=O)[C@@H]5CCCN5C(=O)[C@H](CO)NC(=O)[C@H](Cc5ccc(O)cc5)NC(=O)[C@H](CC(C)C)NC(=O)[C@@H](NC(=O)[C@H](C)N)CSCCC6=O)C(=O)N[C@@H](Cc5c[nH]c6ccccc56)C(=O)N[C@@H](Cc5c[nH]cn5)C(=O)N5CCC[C@H]5C(=O)N[C@@H](CC(C)C)C(=O)N[C@@H](CC(N)=O)C(=O)N[C@@H](CC(=O)O)C(=O)N4)C(N)=O)nn3)C(=O)N3CCC[C@H]3C(=O)N[C@@H](Cc3cccc4ccccc34)C(=O)N[C@H](CC(=O)O)C(=O)N2)C(=O)CCSC[C@@H](C(N)=O)NC(=O)[C@H](Cc2c[nH]c3ccccc23)NC(=O)[C@@H]2C[C@@H](O)CN2C(=O)[C@@H]2CCCN2C(=O)[C@H]([C@@H](C)O)NC(=O)[C@H](CO)NC(=O)[C@H](Cc2c[nH]c3ccccc23)NC(=O)[C@H](CC(=O)O)NC(=O)[C@H](CCCCNC(=N)N)NC1=O", "note": "[BCY12967]", "values": [
      {"measurement": "OX40 agonism", "setting": "[1]", "result": "potent OX40 agonism"}
    ]},
    {"smiles": "CCCC[C@@H]1NC(=O)[C@H](Cc2ccc(O)cc2)NC(=O)[C@@H]2CCCN2C(=O)[C@H](CC(=O)O)NC(=O)[C@H](C)NC(=O)[C@H](Cc2ccccc2)NC(=O)[C@@H]2CSCCC(=O)N3CN(CN(C3)C(=O)CCSC[C@@H](C(=O)N[C@@H](C)C(N)=O)NC1=O)C(=O)CCSC[C@H](NC(C)=O)C(=O)N[C@@H](CC(C)(C)C)C(=O)N1CCC[C@H]1C(=O)N[C@@H](CCC(=O)O)C(=O)N[C@H](CCCCNC(=O)CCc1cn(CCOCCOCCOCCOCCOCCOCCOCCOCCOCCOCCNC(=O)CCOCCN(CCOCCC(=O)NCCOCCOCCOCCOCCOCCOCCOCCOCCOCCOCCn3cc(CCC(=O)NCCCC[C@@H]4NC(=O)[C@H](CCC(N)=O)NC(=O)[C@@H]5CSCCC(=O)N6CN(CN(C6)C(=O)CCSC[C@@H](C(=O)N6CCC[C@H]6C(=O)N[C@@H](CO)C(=O)N[C@@H](Cc6c[nH]cn6)C(N)=O)NC(=O)[C@H](CC(C)C)NC(=O)[C@H](Cc6c[nH]cn6)NC(=O)[C@H](CC(C)C)NC4=O)C(=O)CCSC[C@H](NC(=O)[C@H](CCCCN)NC(=O)[C@H](CC(=O)O)NC(=O)[C@H](CO)NC(C)=O)C(=O)N[C@@H](CO)C(=O)N[C@@H](C)C(=O)NCC(=O)N[C@@H](Cc4c[nH]c6ccccc46)C(=O)N[C@@H](CC(C)C)C(=O)N[C@@H]([C@@H](C)O)C(=O)N[C@@H](CCSC)C(=O)N5)nn3)CCOCCC(=O)NCCOCCOCCOCCOCCOCCOCCOCCOCCOCCOCCn3cc(CCC(=O)NCCCC[C@H]4NC(=O)[C@H](CCC(=O)O)NC(=O)[C@@H]5CCCN5C(=O)[C@H](CC(C)(C)C)NC(=O)[C@@H](NC(C)=O)CSCCC(=O)N5CN6CN(C5)C(=O)CCSC[C@H](NC(=O)[C@H](Cc5ccc(O)cc5)NC(=O)[C@@H]5CCCN5C4=O)C(=O)N[C@@H](Cc4ccccc4)C(=O)N[C@@H](C)C(=O)N[C@@H](CC(=O)O)C(=O)N4CCC[C@H]4C(=O)N[C@@H](Cc4ccc(O)cc4)C(=O)N[C@@H](CCCC)C(=O)N[C@H](C(=O)N[C@@H](C)C(N)=O)CSCCC6=O)nn3)nn1)C(=O)N1CCC[C@H]1C(=O)N[C@@H](Cc1ccc(O)cc1)C(=O)N2", "note": "[BCY11780]", "values": [
      {"measurement": "fold induction", "setting": "[2]", "result": 13}
    ]},
    {"smiles": "CCCC[C@@H]1NC(=O)[C@H](Cc2ccc(O)cc2)NC(=O)[C@@H]2CCCN2C(=O)[C@H](CC(=O)O)NC(=O)[C@H](C)NC(=O)[C@H](Cc2ccccc2)NC(=O)[C@@H]2CSCCC(=O)N3CN(CN(C3)C(=O)CCSC[C@@H](C(=O)N[C@@H](C)C(N)=O)NC1=O)C(=O)CCSC[C@H](NC(C)=O)C(=O)N[C@@H](CC(C)(C)C)C(=O)N1CCC[C@H]1C(=O)N[C@@H](CCC(=O)O)C(=O)N[C@H](CCCCNC(=O)CCc1cn(CCOCCOCCOCCN(CCOCCOCCOCCC(=O)N[C@H]3CSCCC(=O)N4CN5CN(C4)C(=O)CCSC[C@H](NC(=O)[C@@H](CC(=O)O)NC(=O)[C@H](Cc4cccc6ccccc46)NC(=O)[C@@H]4CCCN4C3=O)C(=O)N[C@@H](CCSC)C(=O)N[C@@H](CCCCNC(=N)N)C(=O)N[C@@H](CC(=O)O)C(=O)N[C@@H](Cc3c[nH]c4ccccc34)C(=O)N[C@@H](CO)C(=O)N[C@@H]([C@@H](C)O)C(=O)N3CCC[C@H]3C(=O)N3C[C@H](O)C[C@H]3C(=O)N[C@@H](Cc3c[nH]c4ccccc34)C(=O)N[C@H](C(N)=O)CSCCC5=O)CCOCCOCCOCCn3cc(CCC(=O)NCCCC[C@H]4NC(=O)[C@H](CCC(=O)O)NC(=O)[C@@H]5CCCN5C(=O)[C@H](CC(C)(C)C)NC(=O)[C@@H](NC(C)=O)CSCCC(=O)N5CN6CN(C5)C(=O)CCSC[C@H](NC(=O)[C@H](Cc5ccc(O)cc5)NC(=O)[C@@H]5CCCN5C4=O)C(=O)N[C@@H](Cc4ccccc4)C(=O)N[C@@H](C)C(=O)N[C@@H](CC(=O)O)C(=O)N4CCC[C@H]4C(=O)N[C@@H](Cc4ccc(O)cc4)C(=O)N[C@@H](CCCC)C(=O)N[C@H](C(=O)N[C@@H](CCCCNC(=O)CCOCCOCCOCCOCCOCCOCCOCCOCCOCCOCCOCCOCCNC(=O)CCCC[C@@H]4SC[C@@H]5NC(=O)N[C@@H]54)C(N)=O)CSCCC6=O)nn3)nn1)C(=O)N1CCC[C@H]1C(=O)N[C@@H](Cc1ccc(O)cc1)C(=O)N2", "note": "[BCY13582]", "values": [
      {"measurement": "specific off-target interactions", "setting": "[3]", "result": "No specific off-target interactions"},
      {"measurement": "binding to OX40 and CD40: concentration up to which no binding was seen", "setting": "[4]", "result": "> 100", "unit": "nM"},
      {"measurement": "EC50", "setting": "[5]; co-culture with HT1376 (human), Table 1B", "result": "0.58 ± 0.27", "unit": "nM"},
      {"measurement": "EC50", "setting": "[5]; co-culture with MDA-MB-468 (human)", "result": "0.34 ± 0.02", "unit": "nM"},
      {"measurement": "Emax", "setting": "[5]; co-culture with HT1376, Table 2A", "result": "57 fold induction over background"}
    ]}
  ]
}
